These results are taken from patent publication US20240308960A1 (Sumitomo Pharma Co., Ltd., priority 2021, published 2024).

The assay deals with T1, Human orexin receptor type 2 (Homo sapiens, UniProt O43614).
T1 sequence (O43614 1-444): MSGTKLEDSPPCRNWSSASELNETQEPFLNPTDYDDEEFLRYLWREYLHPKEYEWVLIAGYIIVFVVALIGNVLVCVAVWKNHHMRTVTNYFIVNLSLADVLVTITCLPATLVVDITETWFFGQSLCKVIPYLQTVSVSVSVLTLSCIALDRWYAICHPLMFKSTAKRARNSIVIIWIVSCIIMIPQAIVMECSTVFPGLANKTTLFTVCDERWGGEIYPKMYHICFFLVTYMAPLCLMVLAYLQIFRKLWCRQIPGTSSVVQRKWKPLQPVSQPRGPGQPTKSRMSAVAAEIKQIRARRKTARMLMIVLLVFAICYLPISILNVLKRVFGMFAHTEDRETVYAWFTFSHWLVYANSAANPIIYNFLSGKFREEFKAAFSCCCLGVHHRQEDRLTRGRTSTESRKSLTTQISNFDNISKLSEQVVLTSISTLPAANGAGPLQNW
Description: Test Example 1: agonist activity for orexin receptor type 2 (aequorin luminescence, intracellular calcium mobilization). Particulars: compound 10 μm; CHO cells transiently expressing human orexin receptor type 2 and apoaequorin; relative percentage of luminescence for the luminescence (100%) of Orexin A (100 μM).
On to `CCCN1CCCN(c2ccccc2NC(=O)N2CCC(C)(c3noc(C4CC4)n3)CC2)CC1` [Example 157, 4-(5-cyclopropyl-1,2,4-oxadiazol-3-yl)-4-methyl-N-[2-(4-propyl-1,4-diazepan-1-yl)phenyl]piperidine-1-carboxamide], for which the “Agonist Activity (%)” value was found to be 94%.

Take `CC(C)N1CCN(c2cccc(Cl)c2NC(=O)N2CCC(C)(c3noc(C4CC4)c3Cl)CC2)CC1` [Example 103, 4-(4-chloro-5-cyclopropyl-1,2-oxazol-3-yl)-N-{2-chloro-6-[4-(propan-2-yl)piperazin-1-yl]phenyl}-4-methylpiperidine-1-carboxamide]: the “Agonist Activity (%)” value came out at 178%.

Regarding `COc1cccc(C2CCN(C(C)C)CC2)c1NC(=O)N1CCC(c2ccc(C)cc2)CC1` [Example 48, N-{2-methoxy-6-[1-(propan-2-yl)piperidin-4-yl]phenyl}-4-(4-methylphenyl)piperidine-1-carboxamide], the “Agonist Activity (%)” value was found to be 146%.

On to `Cc1ccc(C2CCN(C(=O)Nc3ccccc3N3CCN(C4CCOC4)CC3)CC2)cc1` (stereo not shown) [Example 124, 4-(4-methylphenyl)-N-{2-[4-(oxolan-3-yl)piperazin-1-yl]phenyl}piperidine-1-carboxamide], for which the “Agonist Activity (%)” value was 27%.

For `Cc1ccc(C23CCN(C(=O)Nc4ccccc4N4CCN(C(C)C)CC4)CC2C3)cc1` (stereo not shown) [Example 14, 6-(4-methylphenyl)-N-{2-[4-(propan-2-yl)piperazin-1-yl]phenyl}-3-azabicyclo[4.1.0]heptane-3-carboxamide], the “Agonist Activity (%)” value was 126%.

In the case of `Cc1ccc(C2CCN(C(=O)Nc3ccccc3N3CCN(C)CC3)CC2)cc1` [Example 123, 4-(4-methylphenyl)-N-[2-(4-methylpiperazin-1-yl)phenyl]piperidine-1-carboxamide], the “Agonist Activity (%)” value is given as 105%.

`Cc1ccc(C2CCN(C(=O)Nc3c(F)cccc3C3=CCN(C(C)C(F)F)CC3)CC2)cc1` (stereo not shown) [Example 135, N-{2-[1-(1,1-difluoropropan-2-yl)-1,2,3,6-tetrahydropyridin-4-yl]-6-fluorophenyl}-4-(4-methylphenyl)piperidine-1-carboxamide]: the “Agonist Activity (%)” value was 103%.

As to `CCN1CCN(c2ccccc2NC(=O)N2CCC(c3ccc(C)cc3)CC2)CC1` [Example 122, N-[2-(4-ethylpiperazin-1-yl)phenyl]-4-(4-methylphenyl)piperidine-1-carboxamide], the “Agonist Activity (%)” value is listed as 122%.

For `CCc1nc(C2(C)CCN(C(=O)Nc3c(Cl)cccc3N3CCN(C(C)C)CC3)CC2)no1` [Example 83, N-{2-chloro-6-[4-(propan-2-yl)piperazin-1-yl]phenyl}-4-(5-ethyl-1,2,4-oxadiazol-3-yl)-4-methylpiperidine-1-carboxamide], the “Agonist Activity (%)” value came out at 146%.

As to `CC(C)N1C2CCC1CN(c1cccc(F)c1NC(=O)N1CCC(C)(c3noc(C4CC4)n3)CC1)C2` [Example 155, 4-(5-cyclopropyl-1,2,4-oxadiazol-3-yl)-N-{2-fluoro-6-[8-(propan-2-yl)-3,8-diazabicyclo[3.2.1]octan-3-yl]phenyl}-4-methylpiperidine-1-carboxamide], the “Agonist Activity (%)” value is 55%.

On to `CC(C)N1CCN(c2cccc(Cl)c2NC(=O)N2CCC(C)(c3noc(CC4CC4)n3)CC2)CC1` [Example 105, N-{2-chloro-6-[4-(propan-2-yl)piperazin-1-yl]phenyl}-4-[5-(cyclopropylmethyl)-1,2,4-oxadiazol-3-yl]-4-methylpiperidine-1-carboxamide], for which the “Agonist Activity (%)” value is on record as 165%.

Turning to `Cc1ccc(C2CCN(C(=O)Nc3c(F)cccc3N3C[C@H]4C[C@@H]3CN4C(C)C)CC2)cc1` [Example 151, N-{2-fluoro-6-[(1R,4R)-5-(propan-2-yl)-2,5-diazabicyclo[2.2.1]heptan-2-yl]phenyl}-4-(4-methylphenyl)piperidine-1-carboxamide], the “Agonist Activity (%)” value came to 97%.

As to `CC(C)N1CCN(c2ccccc2NC(=O)N2CCC(C)(c3nc(-c4ccccc4)no3)CC2)CC1` [Example 12, 4-methyl-4-(3-phenyl-1,2,4-oxadiazol-5-yl)-N-{2-[4-(propan-2-yl)piperazin-1-yl]phenyl}piperidine-1-carboxamide], the “Agonist Activity (%)” value was 123%.

Turning to `CC1(c2noc(C3CC3)n2)CCN(C(=O)Nc2c(Cl)cccc2C2CCN(C3COC3)CC2)CC1` [Example 146, N-{2-chloro-6-[1-(oxetan-3-yl)piperidin-4-yl]phenyl}-4-(5-cyclopropyl-1,2,4-oxadiazol-3-yl)-4-methylpiperidine-1-carboxamide], the “Agonist Activity (%)” value is on record as 104%.

Regarding `CC(C)c1ccc(-c2cccc(F)c2NC(=O)N2CCC(C)(c3cc(C4CC4)on3)CC2)cn1` [Example 59, 4-(5-cyclopropyl-1,2-oxazol-3-yl)-N-{2-fluoro-6-[6-(propan-2-yl)pyridin-3-yl]phenyl}-4-methylpiperidine-1-carboxamide], the “Agonist Activity (%)” value is 158%.

`CCc1nc(C2(F)CCN(C(=O)Nc3c(Cl)cccc3N3CCN(C(C)C)CC3)CC2)no1` [Example 95, N-{2-chloro-6-[4-(propan-2-yl)piperazin-1-yl]phenyl}-4-(5-ethyl-1,2,4-oxadiazol-3-yl)-4-fluoropiperidine-1-carboxamide]: the “Agonist Activity (%)” value is given as 178%.

Take `CC(C)N1CCN(c2cccc(Cl)c2NC(=O)N2CCc3ccccc3CC2)CC1` [Example 97, N-{2-chloro-6-[4-(propan-2-yl)piperazin-1-yl]phenyl}-1,2,4,5-tetrahydro-3H-3-benzazepine-3-carboxamide]: the “Agonist Activity (%)” value is 69%.

In the case of `Cc1ccc(C2CCN(C(=O)Nc3c(Cl)cccc3N3CCN(C(C)C)CC3)CC2)cc1` [Example 35, N-{2-chloro-6-[4-(propan-2-yl)piperazin-1-yl]phenyl}-4-(4-methylphenyl)piperidine-1-carboxamide], the “Agonist Activity (%)” value was 163%.

With `Cc1ccc(C2CCN(C(=O)Nc3c(OC(C)C)cccc3C3CCN(C(C)C)CC3)CC2)cc1` [Example 129, 4-(4-methylphenyl)-N-{2-[(propan-2-yl)oxy]-6-[1-(propan-2-yl)piperidin-4-yl]phenyl}piperidine-1-carboxamide], the “Agonist Activity (%)” value amounted to 138%.

Consider `CC(CF)N1CC=C(c2cccc(Cl)c2NC(=O)N2CCC(C)(c3noc(C4CC4)n3)CC2)CC1` (stereo not shown) [Example 142, N-{2-chloro-6-[1-(1-fluoropropan-2-yl)-1,2,3,6-tetrahydropyridin-4-yl]phenyl}-4-(5-cyclopropyl-1,2,4-oxadiazol-3-yl)-4-methylpiperidine-1-carboxamide], for which the “Agonist Activity (%)” value is recorded as 130%.

For `CC(C)N1CCN(c2cccc(Cl)c2NC(=O)N2CCC(C)(c3noc(C4CC4)n3)CC2)CC1` [Example 67, N-{2-chloro-6-[4-(propan-2-yl)piperazin-1-yl]phenyl}-4-(5-cyclopropyl-1,2,4-oxadiazol-3-yl)-4-methylpiperidine-1-carboxamide], the “Agonist Activity (%)” value stood at 154%.

On to `Cc1nc(C2(C)CCN(C(=O)Nc3c(Cl)cccc3N3CCN(C(C)C)CC3)CC2)no1` [Example 81, N-{2-chloro-6-[4-(propan-2-yl)piperazin-1-yl]phenyl}-4-methyl-4-(5-methyl-1,2,4-oxadiazol-3-yl)piperidine-1-carboxamide], for which the “Agonist Activity (%)” value was 145%.
